Experimental data from US7553867B2, “Furan or thiophene derivative and medicinal use thereof” (Takeda Pharmaceutical Company Limited, priority 2002, dated 2009).

First: CCc1oc(-c2ccc(C(F)(F)F)cc2)cc1CCCOc1ccc(CC(=O)O)cc1Cl [Example 6(93), [3-Chloro-4-(3-{2-ethyl-5-[4-(trifluoromethyl)phenyl]-3-furyl}propoxy)phenyl]acetic acid]
Second: CCc1oc(-c2ccc(C(F)(F)F)cc2)cc1CCCOc1cc(CC(=O)O)ccc1Cl [Example 6(98), [4-Chloro-3-(3-{2-ethyl-5-[4-(trifluoromethyl)phenyl]-3-furyl}propoxy)phenyl]acetic acid]
The melting point of the first is higher: 112 to 113 °C for the first, 104 to 105 °C for the second.

Compared with `COc1cc(CC(=O)O)ccc1OCc1cc(-c2ccc(C(F)(F)F)cc2)oc1C` [Example 6(81), [3-Methoxy-4-({2-methyl-5-[4-(trifluoromethyl)phenyl]-3-furyl}methoxy)phenyl]acetic acid], `CCc1oc(-c2ccc(C(F)(F)F)cc2)cc1CCCOc1cc(CC(=O)O)ccc1OC` [Example 6(40), [3-(3-{2-Ethyl-5-[4-(trifluoromethyl)phenyl]-3-furyl}propoxy)-4-methoxyphenyl]acetic acid] is lower in melting point: 139 to 140 °C for the first, 137 to 138 °C for the second.

First: Cc1oc(-c2ccc(C(F)(F)F)cc2)cc1CCCCOc1ccc(OC(C)(C)C(=O)O)cc1 [Example 6(104), 2-Methyl-2-[4-(4-{2-methyl-5-[4-(trifluoromethyl)phenyl]-3-furyl}butoxy)phenoxy]propionic acid]
Second: Cc1oc(-c2ccc(C(F)(F)F)cc2)cc1CCCOc1ccc(OC(C)(C)C(=O)O)cc1 [Example 6(31), 2-Methyl-2-[4-(3-{2-methyl-5-[4-(trifluoromethyl)phenyl]-3-furyl}propoxy)phenoxy]propionic acid]
The melting point of the first is lower: 67 to 69 °C for the first, 123 to 124 °C for the second.

First: Cc1oc(-c2ccc(C(F)(F)F)cc2)cc1COc1ccc(F)c(CSC(C)(C)C(=O)O)c1 [Example 6(95), 2-{[2-Fluoro-5-({2-methyl-5-[4-(trifluoromethyl)phenyl]-3-furyl}methoxy)benzyl]thio}-2-methylpropionic acid]
Second: Cc1oc(-c2ccc(C(F)(F)F)cc2)cc1COc1cc(CSC(C)(C)C(=O)O)ccc1F [Example 6(94), 2-{[4-Fluoro-3-({2-methyl-5-[4-(trifluoromethyl)phenyl]-3-furyl}methoxy)benzyl]thio}-2-methylpropionic acid]
The melting point of the first is higher: 131 to 132 °C for the first, 120 to 123 °C for the second.

Compared with `CCCN(C(=O)c1cc(-c2ccc(F)cc2)oc1C)c1cccc(CSCC(=O)O)c1` [Example 1(2), [(3{[5-(4-Fluorophenyl)-2-methyl-3-furoyl](propyl)amino}benzyl)thio]acetic acid], `Cc1oc(-c2ccc(F)cc2)cc1C(=O)N(C)c1cccc(CSCC(=O)O)c1` [Example 1(1), [(3{[5-(4-Fluorophenyl)-2-methyl-3-furoyl](methyl)amino}benzyl)thio]acetic acid] is higher in melting point: 140 to 141 °C for the first, 155 to 156 °C for the second.

First: Cc1oc(-c2ccc(C(F)(F)F)cc2)cc1COc1ccc(OC(C)(C)C(=O)O)cc1 [Example 6(5), 2-Methyl-2-[4-({2-methyl-5-[4-(trifluoromethyl)phenyl]-3-furyl}methoxy)phenoxy]propionic acid]
Second: Cc1oc(-c2ccc(C(F)(F)F)cc2)cc1COc1ccc(OC(C)(C)C(=O)O)c(Cl)c1 [Example 6(92), 2-[2-Chloro-4-({2-methyl-5-[4-(trifluoromethyl)phenyl]-3-furyl}methoxy)phenoxy]-2-methylpropionic acid]
The melting point of the first is higher: 134 to 135 °C for the first, 92 to 93 °C for the second.

First: Cc1oc(-c2ccc(C(F)(F)F)cc2)cc1COc1ccc2sc(CC(=O)O)cc2c1 [Example 6(101), [5-({2-Methyl-5-[4-(trifluoromethyl)phenyl]-3-furyl}methoxy)-1-benzothien-2-yl]acetic acid]
Second: CCc1oc(-c2ccc(C(F)(F)F)cc2)cc1CCCOc1ccc2sc(CC(=O)O)cc2c1 [Example 6(102), [5-(3-{2-Ethyl-5-[4-(trifluoromethyl)phenyl]-3-furyl}propoxy)-1-benzothien-2-yl]acetic acid]
The melting point of the first is higher: 153 to 154 °C for the first, 111 to 112 °C for the second.

First: Cc1oc(-c2ccc(C(F)(F)F)cc2)cc1CCCCOc1ccc(SC(C)(C)C(=O)O)cc1 [Example 6(106), 2-Methyl-2-{[4-(4-{2-methyl-5-[4-(trifluoromethyl)phenyl]-3-furyl}butoxy)phenyl]thio}propionic acid]
Second: Cc1oc(-c2ccc(C(F)(F)F)cc2)cc1CCOc1ccc(CC(=O)O)cc1 [Example 6(13), [4-(2-{2-Methyl-5-[4-(trifluoromethyl)phenyl]-3-furyl}ethoxy)phenyl]acetic acid]
The melting point of the first is higher: 155 to 156 °C for the first, 115 to 116 °C for the second.

First: CCc1oc(-c2ccc(C(F)(F)F)cc2)cc1CCCOc1cccc(CC(=O)O)c1F [Example 6(97), [3-(3-{2-Ethyl-5-[4-(trifluoromethyl)phenyl]-3-furyl}propoxy)-2-fluorophenyl]acetic acid]
Second: CCc1oc(-c2ccc(C(F)(F)F)cc2)cc1CCCOc1cccc(C(C)(C)C(=O)O)c1 [Example 6(45), 2-[3-(3-{2-Ethyl-5-[4-(trifluoromethyl)phenyl]-3-furyl}propoxy)phenyl]-2-methylpropionic acid]
The melting point of the first is lower: 92 to 93 °C for the first, 94 to 95 °C for the second.

First: Cc1oc(-c2ccc(C(F)(F)F)cc2)cc1COc1cccc(-c2cccc(CC(=O)O)c2)c1 [Example 6(126), [3′-({2-Methyl-5-[4-(trifluoromethyl)phenyl]-3-furyl}methoxy)-1,1′-biphenyl-3-yl]acetic acid]
Second: Cc1oc(-c2ccc(C(F)(F)F)cc2)cc1COc1cccc(CSC(C)C(=O)O)c1 (stereo not shown) [Example 9(1), 2-{[3-({2-Methyl-5-[4-(trifluoromethyl)phenyl]-3-furyl}methoxy)-benzyl]thio}propionic acid]
The melting point of the first is higher: 128 to 129 °C for the first, 82 to 83 °C for the second.

Compared with `Cc1oc(-c2ccc(C(F)(F)F)cc2)cc1CCc1ncc(CC(=O)O)s1` [Example 13(1), [2-(2-{2-Methyl-5-[4-(trifluoromethyl)phenyl]-3-furyl}ethyl)-1,3-thiazol-5-yl]acetic acid], `Cc1nc(CCc2cc(-c3ccc(C(F)(F)F)cc3)oc2C)sc1CC(=O)O` [Example 13(2), [4-Methyl-2-(2-{2-methyl-5-[4-(trifluoromethyl)phenyl]-3-furyl}ethyl)-1,3-thiazol-5-yl]acetic acid] is higher in melting point: 143 to 145 °C for the first, 168 to 169 °C for the second.

Compared with `COc1ccc(-c2cc(COc3cccc(CSC(C)(C)C(=O)O)c3)c(C)o2)cc1` [Example 6(110), 2-[(3-{[5-(4-Methoxyphenyl)-2-methyl-3-furyl]methoxy}benzyl)thio]-2-methylpropionic acid], `Cc1oc(-c2ccc(C(F)(F)F)cc2)cc1COc1cccc(CSC2(C(=O)O)CCC2)c1` [Example 9(3), 1-{[3-({2-Methyl-5-[4-(trifluoromethyl)phenyl]-3-furyl}methoxy)benzyl]thio}cyclobutanecarboxylic acid] is higher in melting point: 96 to 97 °C for the first, 121 to 122 °C for the second.

In the case of `Cc1oc(-c2ccc(C(F)(F)F)cc2)cc1COc1ccc(OC(C)(C)C(=O)O)c(F)c1` [Example 6(68), 2-[2-Fluoro-4-({2-methyl-5-[4-(trifluoromethyl)phenyl]-3-furyl}methoxy)phenoxy]-2-methylpropionic acid], the melting point is reported as 82 to 83 °C.
